In BindingDB's records for doi:10.1021/acs.jmedchem.2c01521 (Merck, 2023):

Target: cAMP and cAMP-inhibited cGMP 3',5'-cyclic phosphodiesterase 10A (Homo sapiens, UniProt Q9Y233)
Test: Inhibition of human PDE10A2 transfected in human AD293 cells cytosolic fraction using cAMP as substrate by fluorescence polarization assay

cAMP and cAMP-inhibited cGMP 3',5'-cyclic phosphodiesterase 10A, sequence (Q9Y233 whole entry): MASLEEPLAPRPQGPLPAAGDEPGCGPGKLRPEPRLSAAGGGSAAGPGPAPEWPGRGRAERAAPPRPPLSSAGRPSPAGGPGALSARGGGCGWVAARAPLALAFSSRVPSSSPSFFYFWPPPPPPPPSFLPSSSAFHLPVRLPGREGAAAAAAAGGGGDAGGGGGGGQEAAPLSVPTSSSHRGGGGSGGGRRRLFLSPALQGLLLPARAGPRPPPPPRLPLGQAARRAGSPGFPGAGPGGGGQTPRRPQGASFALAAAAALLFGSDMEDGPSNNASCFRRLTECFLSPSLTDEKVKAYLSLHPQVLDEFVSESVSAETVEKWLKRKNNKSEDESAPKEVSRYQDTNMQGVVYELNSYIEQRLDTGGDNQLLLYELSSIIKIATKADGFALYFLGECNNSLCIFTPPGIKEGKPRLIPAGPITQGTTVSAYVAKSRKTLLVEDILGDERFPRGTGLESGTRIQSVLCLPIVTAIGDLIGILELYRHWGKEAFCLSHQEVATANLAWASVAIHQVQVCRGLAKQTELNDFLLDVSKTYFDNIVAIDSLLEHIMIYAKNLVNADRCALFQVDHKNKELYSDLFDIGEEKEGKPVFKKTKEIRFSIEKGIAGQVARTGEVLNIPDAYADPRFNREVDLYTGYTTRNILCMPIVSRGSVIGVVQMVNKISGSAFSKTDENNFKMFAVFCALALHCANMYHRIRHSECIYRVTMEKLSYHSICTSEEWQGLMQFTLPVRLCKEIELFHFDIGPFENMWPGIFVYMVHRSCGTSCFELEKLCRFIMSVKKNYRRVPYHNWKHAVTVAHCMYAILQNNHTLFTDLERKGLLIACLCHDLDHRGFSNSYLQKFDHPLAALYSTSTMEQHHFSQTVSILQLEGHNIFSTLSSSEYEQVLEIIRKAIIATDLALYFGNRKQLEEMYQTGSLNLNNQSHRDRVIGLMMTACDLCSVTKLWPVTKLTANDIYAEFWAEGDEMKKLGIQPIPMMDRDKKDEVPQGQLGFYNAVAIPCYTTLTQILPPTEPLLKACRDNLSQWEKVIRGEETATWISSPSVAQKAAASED

Ki: 7.8 nM
Structure (SMILES): Cc1cnc(OC[C@H]2C[C@@H]2c2ccccn2)cc1NCc1cnn(C)c1
